According to the supplement of paper PMC10307832:

Tests used:
Test in all cases: relative viability (nuclei count vs DMSO), 5 days (fraction); higher = more cells survive
Staurosporine = compound: CN[C@@H]1C[C@H]2O[C@@](C)([C@@H]1OC)n1c3ccccc3c3c4c(c5c6ccccc6n2c5c31)C(=O)NC4 [Staurosporine]
Procedure, shortened: (§1)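 After an overnight hold at 37 °C, lung cancer cell lines in 1536-well plates were pinned with five library-drug doses (not always all listed), each √10 from the next, on vehicle-anchored plates. The cells stayed 5 days without fresh medium, then a one-step fix, permeabilisation and Hoechst stain preceded 4× imaging and MetaXpress nuclear counts. A plate passed only with control CV under 25% and at least one doubling. Viability is the median, over plates, of treated-well nuclei relative to vehicle-well nuclei.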

Sulindac = compound: CC1=C(CC(=O)O)c2cc(F)ccc2/C1=C\c1ccc([S+](C)[O-])cc1 [Sulindac]
Procedure, shortened: as §1

5-Fluorouracil = compound: O=c1[nH]cc(F)c(=O)[nH]1 [5-Fluorouracil]
Procedure, shortened: as §1

Sulindac + Foretinib = compound: CC1=C(CC(=O)O)c2cc(F)ccc2/C1=C\c1ccc([S+](C)[O-])cc1 [Sulindac] + COc1cc2c(Oc3ccc(NC(=O)C4(C(=O)Nc5ccc(F)cc5)CC4)cc3F)ccnc2cc1OCCCN1CCOCC1 [Foretinib] (partner 0.25 µM)
Procedure, shortened: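 Relative viability divides the nuclei count in treated wells by that in vehicle wells. Lung cancer cell lines were seeded in 1536-well plates, dosed by pin tool the next day, and fixed and stained after 5 days in one step with final 0.05% Triton X-100, 1% formaldehyde and 1 ug/ml Hoechst. Dosing was a single drug or a fixed anchor-drug dose plus five library-drug doses (not always all listed) in √10 steps, and values are medians of duplicate plates imaged at 4×.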

Cell Line	relative viability (Staurosporine; 0.005 µM)	relative viability (Staurosporine; 0.01581 µM)	relative viability (Staurosporine; 0.05 µM)	relative viability (Staurosporine; 0.1581 µM)	relative viability (Staurosporine; 0.5 µM)	relative viability (Sulindac; 0.08 µM)	relative viability (Sulindac; 0.253 µM)	relative viability (Sulindac; 0.8 µM)	relative viability (Sulindac; 2.53 µM)	relative viability (Sulindac; 8 µM)	relative viability (5-Fluorouracil; 0.02 µM)	relative viability (5-Fluorouracil; 0.2 µM)	relative viability (5-Fluorouracil; 0.6325 µM)	relative viability (5-Fluorouracil; 2 µM)	relative viability (Sulindac + Foretinib; first compound 0.08 µM)	relative viability (Sulindac + Foretinib; first compound 0.253 µM)	relative viability (Sulindac + Foretinib; first compound 2.53 µM)	relative viability (Sulindac + Foretinib; first compound 8 µM)	relative viability (Sulindac + Foretinib; first compound 0.8 µM)
NCI-H1355	0.856	0.238	0.363	0.197	0.159	1.02	1.06	0.873	0.971	1.08	0.925	0.877	0.438	0.309	1.16	1.04	1.07	0.987	–
NCI-H2347	0.706	0.524	0.457	0.391	0.376	1.01	1.06	0.759	1.03	1.11	0.928	0.834	0.49	0.448	1.08	0.562	1.26	0.807	0.645
NCI-H1651	1.02	0.751	0.548	0.357	0.285	1.04	1.04	0.771	1.01	1.02	1.04	0.896	0.504	0.458	0.899	0.848	0.764	0.88	–
NCI-H1993	1.02	0.537	0.57	0.458	0.329	0.923	0.867	0.82	0.83	0.953	1.01	0.665	0.672	0.749	0.728	0.724	0.761	0.752	0.751
COR-L23	0.765	0.443	0.289	0.123	0.0808	1.41	1.08	0.7	1.01	1.22	1	0.995	0.476	0.278	1.18	1.03	0.982	1.26	0.88
LOU-NH91	0.921	0.603	0.613	0.294	0.275	0.989	0.982	0.944	0.922	1.11	0.99	1.1	0.734	0.39	0.859	0.964	0.935	1.11	0.876
NCI-H520	1.14	0.706	0.698	0.272	0.163	1.16	1.08	0.891	0.957	1.06	0.923	1.06	0.73	0.516	0.876	0.822	0.678	1.34	–
NCI-H661	1.02	0.722	0.555	0.364	0.238	1.13	1.05	0.989	1	0.965	0.998	1.04	0.954	0.992	1.12	1.05	1.1	1.03	0.999
NCI-H1975	0.475	0.365	0.258	0.159	0.136	1.09	0.969	0.795	0.998	1.07	0.968	1.07	0.566	0.343	1.12	1.01	0.993	1.05	1.05
NCI-H1299	0.815	0.491	0.284	0.207	0.137	1.13	1.09	0.908	1.05	1.08	1.1	1.05	0.955	0.703	1.13	1.09	1.02	1.15	1.06
NCI-H1755	0.829	0.47	0.319	0.191	0.213	1.1	1.09	1.01	1.08	1.06	1.02	0.994	0.356	0.304	0.976	0.974	0.916	1.03	0.848
NCI-H2009	0.452	0.227	0.231	0.167	0.109	1.1	1.08	0.972	1	1.11	1.1	1.02	0.82	0.652	1.32	1.26	1.22	1.12	1.26
LK-2	1.17	1.06	0.874	0.366	0.243	1.23	1.06	0.78	0.738	1.21	1.16	0.989	0.8	0.574	1.73	1.45	–	1.21	–
HCC-78	0.88	0.666	0.586	0.363	0.353	1.14	0.958	0.759	0.913	0.961	0.896	1.13	0.603	0.404	0.512	0.547	0.566	0.556	0.585
NCI-H3122	1.04	–	0.893	0.255	0.357	1.04	1.03	0.949	0.962	1.08	1	0.848	0.39	0.241	1.06	0.936	1.01	0.981	1.01
HOP-62	0.83	0.298	0.183	0.138	0.109	1.17	1.13	0.926	1.13	1.09	1.03	1	0.971	0.877	1.18	1.1	1.23	1.25	–
NCI-H727	0.736	0.554	0.381	0.345	0.22	0.963	0.923	0.741	0.9	1.01	0.925	1.19	0.846	0.774	0.789	0.93	0.898	0.826	–
